Results: patent publication US20240116918A1, “SUBSTITUTED TRICYCLIC COMPOUND AS PRMT5 INHIBITOR AND USE THEREOF” (NANJING SANHOME PHARMACEUTICAL CO., LTD., priority 2019, published 2024)

Key:
PRMT5 = PRMT5 (Homo sapiens (Human), UniProt O14744); assay: In vitro evaluation of kinase activity (PRMT5 enzymatic assay, [3H]-SAM FlashPlate); assay type: biochemical; conditions: polypeptide substrate H4(1-21)S1ac 100 nM, [3H]-SAM 250 nM, 25° C., 60 min; read-out: Enzyme IC50 PRMT5
Description: Compounds: the compounds of the present invention prepared in the above examples. Each compound was formulated into a 10 mM stock solution with DMSO, and finally diluted into 10 concentrations for detection, with the final concentrations being 10000.00 nM, 3333.33 nM, 1111.11 nM, 370.37 nM, 123.46 nM, 41.15 nM, 13.72 nM, 4.57 nM, 1.52 nM, and 0.51 nM.
Reagents and consumables: PRMTS, purchased from Active Motif, Cat. No. 31921; polypeptide substrate H4(1-21)S1ac, purchased from Gill Biochemical (Shanghai) Co., Ltd., Cat. No. 342095; [^3H]-SAM, purchased From PerkinElmer, Cat. No. NET155V001MC; SAM, purchased from Sigma, Cat. No. A7007-100MG; SAH, purchased from Sigma, Cat. No. A9384-25MG; DTT, purchased from Sangon Bioengineering (Shanghai) Co., Ltd., Cat. No. A620058-0005. Corning-3657, purchased from Corning, Cat. No. 3657; Echo Qualified 384-Well, purchased from Labcyte, Cat. No. P-05525; FlashPlate, purchased from Perkin Elmer, Cat. No. SMP410J001PK.
2.1. Preparation of reaction buffer and reaction stop solution: the composition of 1× reaction buffer was 10 mM Tris-HCl, pH 8.0; 0.01% Tween-20; and 1 mM DTT. The composition of the reaction stop solution was 125 μM […] solution.
The compounds were dissolved in 100% DMSO to prepare 10 mM stock solutions and then diluted to desired concentrations on an Echo 384 well plate.
250 nL of the compounds diluted above were transferred from the Echo 384 well plate to a 384 well reaction plate using the Echo550 instrument.
PRMT5 was added to 1× reaction buffer to form 1.67× enzyme solution.
The polypeptide substrate and [^3H]-SAM were added to 1× reaction buffer to form 2.5× substrate solution (the final concentrations were 100 nM and 250 nM, respectively).
15 μL of 1.67× enzyme solution was added to the wells of a 384 well reaction plate. For control wells without enzymatic activity, the enzyme solution was replaced with 15 μL of 1× reaction buffer. The plate was centrifuged at 1000 rpm for 1 min and incubated at room temperature for 15 min. […]

hERG potassium channel = hERG potassium channel (Homo sapiens (Human), UniProt Q12809)
hERG potassium channel, sequence (Q12809 whole entry): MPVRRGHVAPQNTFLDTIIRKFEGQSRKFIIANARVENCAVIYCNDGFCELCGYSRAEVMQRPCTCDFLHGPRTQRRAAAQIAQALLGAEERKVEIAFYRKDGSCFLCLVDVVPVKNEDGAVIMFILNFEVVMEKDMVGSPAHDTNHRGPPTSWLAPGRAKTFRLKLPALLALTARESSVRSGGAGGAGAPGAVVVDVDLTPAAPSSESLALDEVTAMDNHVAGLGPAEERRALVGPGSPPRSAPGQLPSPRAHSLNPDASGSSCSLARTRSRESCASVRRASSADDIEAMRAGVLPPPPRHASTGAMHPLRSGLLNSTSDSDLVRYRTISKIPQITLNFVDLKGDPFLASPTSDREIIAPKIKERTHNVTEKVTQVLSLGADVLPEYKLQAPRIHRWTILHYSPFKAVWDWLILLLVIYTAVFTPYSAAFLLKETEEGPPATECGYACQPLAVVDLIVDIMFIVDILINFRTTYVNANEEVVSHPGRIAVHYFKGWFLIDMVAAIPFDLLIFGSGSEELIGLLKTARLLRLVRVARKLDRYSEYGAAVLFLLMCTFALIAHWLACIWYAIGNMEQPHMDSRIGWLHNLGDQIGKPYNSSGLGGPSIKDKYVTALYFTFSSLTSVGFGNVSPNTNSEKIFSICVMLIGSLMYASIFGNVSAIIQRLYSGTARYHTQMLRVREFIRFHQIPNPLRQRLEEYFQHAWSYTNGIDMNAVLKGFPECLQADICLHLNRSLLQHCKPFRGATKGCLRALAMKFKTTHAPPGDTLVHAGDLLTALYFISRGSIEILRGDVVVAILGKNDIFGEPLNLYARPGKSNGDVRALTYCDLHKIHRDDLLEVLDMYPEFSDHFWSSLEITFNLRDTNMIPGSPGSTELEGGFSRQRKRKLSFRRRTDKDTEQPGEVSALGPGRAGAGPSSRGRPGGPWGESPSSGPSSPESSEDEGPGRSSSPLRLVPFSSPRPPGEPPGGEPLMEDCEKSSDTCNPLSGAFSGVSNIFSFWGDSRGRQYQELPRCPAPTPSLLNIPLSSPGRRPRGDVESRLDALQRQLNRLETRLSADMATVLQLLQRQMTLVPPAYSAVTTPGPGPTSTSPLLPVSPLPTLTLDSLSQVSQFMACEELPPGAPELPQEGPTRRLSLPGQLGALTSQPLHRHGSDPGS
Description: Preparation of test solvents: preparation of extracellular fluid (mM): 137 NaCl, 4 KCl, 1.8 CaCl2, 1 MgCl2, 10 glucose and 10 HEPES (pH 7.4); preparation of intracellular fluid (mM): 130 KCl, 1 MgCl2, 5 EGTA, 5 MgATP and 10 HEPES (pH 7.2); preparation of negative control: extracellular fluid+0.3% DMSO; positive control: quinidine.
Compound treatment: The compound was weighed and dissolved in DMSO to prepare a 10 mM stock solution, which was diluted with DMSO to form secondary stock solutions with concentrations of 3.3, 1.1, 0.37 and 0.12 mM. 90 μL each of the stock solution and the secondary stock solutions was diluted into 30 mL of extracellular fluid for electrophysiological detection. The final concentrations of the compound were 30, 10, 3.3, 1.1 and 0.37 μM, and the final concentration of DMSO was 3:1000.
Stably transfected cell culture: The cell line was originated from HEK-293 cells overexpressing hERG potassium ion channel. […] The cells were cultured in an incubator at 37° C. and 5% CO2. When the cell density reaches 80% of the petri dish, the cells were first pre-washed with phosphate buffered saline (PBS), then digested with trypsin/EDTA for 2-3 min. Cell culture medium was added to stop the digestion. The cells were gently blown down and transferred to a centrifuge tube, and centrifuged at 1000 rpm for 3 min. The supernatant was discarded, cell culture medium was added, and the cells were mixed uniformly by gentle tapping. After that, the mixture was transferred to a petri dish for subculture, or the cells were dripped on a round glass slide and placed on a petri dish for the cells to adhere for experiments.
Experiments on electrophysiological manual patch-clamp system: The stably transfected cells were inoculated on a glass slide with a cell density lower than 50%, and cultured overnight. The experimental cells were transferred to a bath of about 1 mL embedded in an inverted microscope platform, and the extracellular fluid was perfused at a perfusion rate of 2.7 mL/min. After 5 minutes of stabilization, the experiment was started. Membrane currents were recorded using HEKA EPC-10 patch clamp amplifier and [sequence] acquisition system. All the experiments were performed at room temperature (22-24° C.). Electrodes were drawn straight using P-97 microelectrode drawing instrument (BF150-110-10) in the experiments. The inner diameter of the electrode was 1-1.5 mm, and the pipette resistance after filling with the inner liquid was 2-4 MΩ. The electrophysiological stimulation scheme of hERG potassium channel included: first setting the membrane voltage at −80 mV, applying a stimulation to the cells at +20 mV voltage for 2 s to activate the hERG potassium channel, and then repolarizing to −50 mV for 5 s to generate an outward tail current. The stimulation frequency was once every 15 s. The current value was the peak value of the tail current. The channel currents were recorded in the whole-cell recording mode. Firstly, the extracellular fluid was perfused (about 2 mL per minute) while recording was continued. When the current was stabilized (the current decay (Run-Down) was less than 5% within 5 minutes), the peak value of the tail current was the control current value. Then, the extracellular fluid containing the drug to be tested was perfused while the recording was continued until the inhibitory effect of the drug on the hERG current reached a steady state. At this time, the peak value of the tail current was the current value after drug addition. […]

PRMT5, sequence (O14744 whole entry): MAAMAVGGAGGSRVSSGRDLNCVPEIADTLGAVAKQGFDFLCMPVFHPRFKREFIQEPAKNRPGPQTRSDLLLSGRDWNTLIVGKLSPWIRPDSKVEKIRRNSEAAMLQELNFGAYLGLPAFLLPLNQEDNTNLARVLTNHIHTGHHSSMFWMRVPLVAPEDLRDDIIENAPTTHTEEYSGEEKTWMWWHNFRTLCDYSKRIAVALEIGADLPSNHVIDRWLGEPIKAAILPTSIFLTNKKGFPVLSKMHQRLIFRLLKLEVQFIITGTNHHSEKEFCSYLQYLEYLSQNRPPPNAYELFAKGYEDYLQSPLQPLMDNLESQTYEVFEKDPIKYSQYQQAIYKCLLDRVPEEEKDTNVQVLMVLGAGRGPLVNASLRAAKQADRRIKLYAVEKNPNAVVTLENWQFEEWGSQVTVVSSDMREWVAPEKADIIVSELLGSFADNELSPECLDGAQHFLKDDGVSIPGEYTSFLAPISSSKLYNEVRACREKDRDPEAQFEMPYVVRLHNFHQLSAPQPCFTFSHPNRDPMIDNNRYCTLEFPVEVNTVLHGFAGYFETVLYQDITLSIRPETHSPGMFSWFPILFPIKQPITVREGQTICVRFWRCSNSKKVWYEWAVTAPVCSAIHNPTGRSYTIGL
PRMT5, sequence (Q9BQA1 whole entry partner): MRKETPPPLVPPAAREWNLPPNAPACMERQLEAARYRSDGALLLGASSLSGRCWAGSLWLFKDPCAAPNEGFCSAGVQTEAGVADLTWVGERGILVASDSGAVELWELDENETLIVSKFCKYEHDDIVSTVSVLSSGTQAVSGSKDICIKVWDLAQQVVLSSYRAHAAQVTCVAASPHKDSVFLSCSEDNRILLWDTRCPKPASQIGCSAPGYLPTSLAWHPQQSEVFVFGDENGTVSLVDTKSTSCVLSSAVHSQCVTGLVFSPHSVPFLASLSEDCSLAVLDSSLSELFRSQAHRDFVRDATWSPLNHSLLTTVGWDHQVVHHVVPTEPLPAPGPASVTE

Row | Structure (SMILES) | IC50 (PRMT5) | inhibitory effect on the hERG potassium channel (in words) (hERG potassium channel)
1 | CC(=O)N1CCC(Nc2cc3c(cn2)C2(CC2)CN(C[C@H](O)CN2CCc4ccccc4C2)C3=O)CC1 [Example 1, (R)-7′-((1-acetylpiperidin-4-yl)amino)-2′-(3-(3,4-dihydroisoquinolin-2(1H)-yl)-2-hydroxypropyl)-2′,3′-dihydro-1′H-spiro[cyclopropane-1,4′-[2,6]naphthyridin]-1′-one] | 0.0327 µM | 
2 | CC(=O)N1CC2(CC(Nc3cc4c(cn3)C3(CC3)CN(C[C@H](O)CN3CCc5ccccc5C3)C4=O)C2)C1 [Example 2, (R)-7′-((2-acetyl-2-azaspiro[3.3]hept-6-yl)amino)-2′-(3-(3,4-dihydroisoquinolin-2(1H)-yl)-2-hydroxypropyl)-2′,3′-dihydro-1′H-spiro[cyclopropane-1,4′-[2,6]naphthyridin]-1-one] | 0.0497 µM | weak inhibitory effect
